Reference: patent publication US20260176253A1 (priority 2021, published 2026)

Assays:
[1] = biological target: 5-HT2Cedited (accession number AAF35842.1) (Homo sapiens, UniProt P28335, I156V/I160V/N158S); experiment: biochemical; format: binding
[2] = biological target: human recombinant 5-HT2Cedited receptor (Homo sapiens, UniProt P28335, I156V/I160V/N158S); experiment: cell-based
human recombinant 5-HT2Cedited receptor, sequence (P28335 33-458 I156V/N158S/I160V limits assumed): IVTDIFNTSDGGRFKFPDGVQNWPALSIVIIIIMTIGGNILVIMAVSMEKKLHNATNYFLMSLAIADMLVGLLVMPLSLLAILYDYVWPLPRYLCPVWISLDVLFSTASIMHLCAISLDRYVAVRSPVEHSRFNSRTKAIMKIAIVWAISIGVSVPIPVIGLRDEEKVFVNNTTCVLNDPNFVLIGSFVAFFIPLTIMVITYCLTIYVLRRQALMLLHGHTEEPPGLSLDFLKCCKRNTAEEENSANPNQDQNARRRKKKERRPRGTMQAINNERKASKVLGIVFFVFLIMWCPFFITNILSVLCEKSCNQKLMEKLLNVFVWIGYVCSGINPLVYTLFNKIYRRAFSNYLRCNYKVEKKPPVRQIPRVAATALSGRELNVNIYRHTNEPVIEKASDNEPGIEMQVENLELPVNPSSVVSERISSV

5-HT2Cedited (accession number AAF35842.1), sequence (P28335 whole entry I156V/N158S/I160V, looked up): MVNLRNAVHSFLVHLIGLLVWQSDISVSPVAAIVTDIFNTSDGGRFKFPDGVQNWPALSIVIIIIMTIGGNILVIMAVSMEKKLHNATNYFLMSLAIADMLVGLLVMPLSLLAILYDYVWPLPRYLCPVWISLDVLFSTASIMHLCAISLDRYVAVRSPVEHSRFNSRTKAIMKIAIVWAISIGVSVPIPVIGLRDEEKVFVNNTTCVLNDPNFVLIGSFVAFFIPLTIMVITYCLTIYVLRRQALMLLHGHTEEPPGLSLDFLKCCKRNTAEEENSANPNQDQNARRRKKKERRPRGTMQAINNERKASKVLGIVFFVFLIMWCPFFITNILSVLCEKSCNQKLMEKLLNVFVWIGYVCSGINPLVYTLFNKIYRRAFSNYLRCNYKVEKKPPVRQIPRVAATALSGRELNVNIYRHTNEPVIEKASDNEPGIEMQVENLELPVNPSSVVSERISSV

Row | SMILES | IC50 [1] | EC50 [2]
1 | COc1ccc2c3c([nH]c2c1)CCN1CCCC1C3 (stereo not drawn) [Compound 1, 9-methoxy-1,2,3,5,6,7,12,12a-octahydropyrrolo[1′,2′:1,7]azepino[4,5-b]indole] | 1000 to 10000 nM | > 10000 nM
2 | COc1ccc2c3c([nH]c2c1)CC1CCCN1CC3 (stereo not drawn) [Compound 2, 9-methoxy-1,2,3,5,6,11,12,12a-octahydropyrrolo[1′,2′:1,2]azepino[4,5-b]indole] | 1000 to 10000 nM | 1000 to 10000 nM
3 | Cn1c2c(c3ccccc31)CCN1CCCC1C2 (stereo not drawn) [Compound 3, 11-methyl-1,2,3,5,6,11,12,12a-octahydropyrrolo[1′,2′:1,2]azepino[4,5-b]indole] | 101 to 1000 nM | 101 to 1000 nM
4 | c1ccc2c3c([nH]c2c1)CC1CCCN1CC3 (stereo not drawn) [Compound 4, 1,2,3,5,6,11,12,12a-octahydropyrrolo[1′,2′;1,2]azepino[4,5-b]indole] | 101 to 1000 nM | 101 to 1000 nM
5 | COc1cccc2[nH]c3c(c12)CC1CCCN1CC3 (stereo not drawn) [Compound 5, 11-methoxy-1,2,3,5,6,7,12,12a-octahydropyrrolo[1′,2′:1,7]azepino[4,5-b]indole] | 101 to 1000 nM | 1000 to 10000 nM
6 | Cn1c2c(c3ccccc31)CC1CCCN1CC2 (stereo not drawn) [Compound 6, 7-methyl-1,2,3,5,6,7,12,12a-octahydropyrrolo[1′,2′:1,7]azepino[4,5-b]indole] | 101 to 1000 nM | 101 to 1000 nM
7 | c1ccc2c3c([nH]c2c1)CCN1CCCC1C3 (stereo not drawn) [Compound 7, 1,2,3,5,6,7,12,12a-octahydropyrrolo[1′,2′:1,7]azepino[4,5-b]indole] | 101 to 1000 nM | 101 to 1000 nM
8 | FC(F)(F)c1ccc2c3c([nH]c2c1)CC1CCCN1CC3 (stereo not drawn) [Compound 12, 9-(trifluoromethyl)-1,2,3,5,6,11,12,12a-octahydropyrrolo[1′,2′:1,2]azepino[4,5-b]indole] | 1000 to 10000 nM | > 10000 nM
9 | FC(F)(F)Oc1ccc2c3c([nH]c2c1)CC1CCCN1CC3 (stereo not drawn) [Compound 13, 9-(trifluoromethoxy)-1,2,3,5,6,11,12,12a-octahydropyrrolo[1′,2′;1,2]azepino[4,5-b]indole] | 1000 to 10000 nM | > 10000 nM
10 | COc1ccc2c3c([nH]c2c1)C[C@@H]1CCCN1CC3 [Compound 17, (S)-9-methoxy-1,2,3,5,6,11,12,12a-octahydropyrrolo[1′,2′:1,2]azepino[4,5-b]indole] | 1000 to 10000 nM | > 10000 nM
11 | COc1ccc2c3c([nH]c2c1)C[C@H]1CCCN1CC3 [Compound 18, (R)-9-methoxy-1,2,3,5,6,11,12,12a-octahydropyrrolo[1′,2′:1,2]azepino[4,5-b]indole] | 1000 to 10000 nM | > 10000 nM
12 | c1ccc2c3c([nH]c2c1)C[C@@H]1CCCN1CC3 [Compound 19, (S)-1,2,3,5,6,11,12,12a-octahydropyrrolo[1′,2′:1,2]azepino[4,5-b]indole] | 101 to 1000 nM | 101 to 1000 nM
13 | c1ccc2c3c([nH]c2c1)C[C@H]1CCCN1CC3 [Compound 20, (R)-1,2,3,5,6,11,12,12a-octahydropyrrolo[1′,2′:1,2]azepino[4,5-b]indole] | 101 to 1000 nM | 10 to 100 nM
14 | FC(F)(F)c1cccc2[nH]c3c(c12)CCN1CCCC1C3 (stereo not drawn) [Compound 21, 7-(trifluoromethyl)-1,2,3,5,6,11,12,12a-octahydropyrrolo[1′,2′:1,2]azepino[4,5-b]indole] | 101 to 1000 nM | 101 to 1000 nM
15 | c1ccc2c3c([nH]c2c1)CCN1CCC[C@@H]1C3 [Compound 22, (R)-1,2,3,5,6,7,12,12a-octahydropyrrolo[1′,2′:1,7]azepino[4,5-b]indole] | 101 to 1000 nM | 101 to 1000 nM
16 | c1ccc2c3c([nH]c2c1)CCN1CCC[C@H]1C3 [Compound 23, (S)-1,2,3,5,6,7,12,12a-octahydropyrrolo[1′,2′:1,7]azepino[4,5-b]indole] | 101 to 1000 nM | 101 to 1000 nM
17 | COc1ccc2c3c([nH]c2c1)CCN1CCC[C@@H]1C3 [Compound 24, (R)-9-methoxy-1,2,3,5,6,7,12,12a-octahydropyrrolo[1′,2′:1,7]azepino[4,5-b]indole] | 1000 to 10000 nM | 1000 to 10000 nM
18 | COc1ccc2c3c([nH]c2c1)CCN1CCC[C@H]1C3 [Compound 25, (S)-9-methoxy-1,2,3,5,6,7,12,12a-octahydropyrrolo[1′,2′:1,7]azepino[4,5-b]indole] | 1000 to 10000 nM | 1000 to 10000 nM
19 | COc1cccc2[nH]c3c(c12)C[C@H]1CCCN1CC3 [Compound 26, (R)-11-methoxy-1,2,3,5,6,7,12,12a-octahydropyrrolo[1′,2′:1,7]azepino[4,5-b]indole] | 10 to 100 nM | 10 to 100 nM
20 | COc1cccc2[nH]c3c(c12)C[C@@H]1CCCN1CC3 [Compound 27, (S)-11-methoxy-1,2,3,5,6,7,12,12a-octahydropyrrolo[1′,2′:1,7]azepino[4,5-b]indole] | 101 to 1000 nM | 101 to 1000 nM
21 | FC(F)(F)c1cccc2[nH]c3c(c12)CC1CCCN1CC3 (stereo not drawn) [Compound 28, 11-(trifluoromethyl)-1,2,3,5,6,7,12,12a-octahydropyrrolo[1′,2′:1,7]azepino[4,5-b]indole] | 10 to 100 nM | 101 to 1000 nM
